# From US20050054845A1, “Thymosin augmentation of genetic immunization” (Rhode Island Hospital, priority 2001, published 2005)
# Ends that are not written are not given here.
# Key:
# [1] = in vivo; cited from earlier work
# [2] = tested on: spleen cells stimulated with recombinant NS5; test: T-cell proliferation assay after genetic immunization; assay type: in vivo, Balb/c mice; conditions: co-administration of 5 μg thymosin α1 i.p. twice/week with 50 μg pAp031NS5 DNA vs DNA alone; all three challenge concentrations; [3H]-thymidine incorporation; FIG. 3
# Method: (§1) To enhance the cellular uptake of plasmid DNA, the quadriceps muscle of Balb/c mice was injected at multiple sites with a total of 100 μL of 0.25% hupivacaine. Four days later, the plasmid constructs were injected into the same region at five different sites in a final volume of 100 μL 0.9% NaCl. Two weeks later the mice were boosted in the opposite leg with plasmid DNA. The mice were killed ten days after the last immunization. There were three groups of mice each containing five animals. Group 1=mice immunized with 100 μg mock DNA; Group 2=mice immunized with 50 μg pAp031NS5 and 50 μg mock DNA; Group 3=mice immunized with 50 μg pAp031 NS5 and 50 μg mock DNA, and received 5 μg thymosin α1 i.p. twice/week. Animals were immunized three times two weeks apart, and studies were performed ten days after the final immunization.
# Mice were anesthetized with isoflurane (Aerrane, Anaquest, N.J.), blood was removed by retrobulbar puncture and spleen cells were harvested. Red blood cells were removed by incubation in […] NH4C1/0.17 mol/L Tris (pH 7.4) for 10 minutes at 37° C. […] The [^3H]-thymidine incorporation into DNA was measured after harvesting. […] Incorporation of radioactivity was corrected for background activity (Δ cpm). […]
# SP2—NS5 cells = test: Cytotoxicity (CTL) 51Cr-release assay after genetic immunization; assay type: in vivo, Balb/c mice; conditions: co-administration of 5 μg thymosin α1 i.p. twice/week with 50 μg pAp031NS5 DNA vs DNA alone; L/T ratios 1:10 and 1:100; 4-hour 51Cr-release; FIG. 4
# Method: as §1
# Spleen cells from immunized mice were suspended in complete DMEM containing 10% FCS and 50 μmol/L 2-mercaptoethanol; the cells were then analyzed for cytotoxic activity 5 days after in vitro stimulation. […] Percent cytotoxicity was calculated as: [formula] […] Total release represents the radioactivity released after total lysis of target cells with 5% TritonX-100. […]
# Spontaneous release represents the radioactivity present in medium derived from target cells only. […]
substance,measurement,setting,value
"thymosin α1 (SDAAVDTSSEITTKDLKEKKEVVEEAEN; ends and bridges not checked; UniProt P06454 2-29, looked up) [α thymosin, 28 amino acid acidic polypeptide immune modifier derived from the thymus gland, molecular weight 3100]",dose found to be safe for humans,[1],≤ 16 mg/kg body weight/day
same,increase of CD4 proliferative response,[2],approximately 100%
same,increase of percent cytotoxicity,SP2—NS5 cells,≥ 100%
